The text below walks through data of patent US20260327198A1, “2-DIARYLMETHYL-4-AMINOTETRAHYDROPYRAN SULFONIMIDAMIDES AS ANTICANCER, ANTIINFLAMMATORY, ANTIFIBROTIC AND NEUROPROTECTIVE AGENTS” (Atux Iskay LLC, priority 2022, published 2026).

In test [1] the test system is mouse models of allergic airway disease. To be noted: small molecule activators of PP2A; cited from earlier work.
Test [2] relates to D425 medulloblastoma cells. Put plainly: D425 medulloblastoma cell viability / growth inhibition (CellTiter-Glo). It counts as cell-based. To be noted: n = 3, 0.1% DMSO. On the procedure: D425 medulloblastoma cells were purchased from SigmaAldrich. D425 meduloblastoma cells were cultured in improved Dulbecco's modified Eagle's medium (DMEM) Richter's modification supplemented with 20% fetal bovine serum and 1% Penicillin-streptomycin. Incubation was performed at 37° C. and 5% CO2.
D425 cells were seeded at 3000-3500 cells/90 μL growth medium per well on 96-well tissue culture plates. Cells were incubated overnight to allow them to recover. Next day cells were treated with tested compounds and incubated for 48 hours.
Cell Proliferation assays in triplicate were performed at each concentration. Compounds test range was 1-30 μM (0, 5, 10, 15, 20, 25, and 30). The compounds were dissolved in DMSO. A series of dilutions were made in 1% DMSO in growth medium so that the final concentration of DMSO is 0.1% in all of treatments.
After treatment, cells were allowed to equilibrate at room temperature for one hour. Cell proliferation was measured by Luminescence quantification using Promega CellTiter-Glo Luminescent Cell Viability Assay. To perform the assay, 90 μL of Celltiter-Glo substrate was added to each well, plates were shake for 2 minutes and allowed to equilibrate for 10 minutes at room temperature. Luminescence intensity was measured using the Spectramax i3x plate reader.
The Luminescence intensity data were analyzed using the computer software Graphpad Prism. In the absence of the compound, the luminescence intensity (Lt) in each data set was defined as 100% cell viability. The percent cell in the presence of each compound was calculated according to the following equation: % Cell=L/Lt, were L=the luminescence intensity in the presence of the compound.
The values of % cell versus a series of compound concentrations (0, 5, 10, 15, 20, 25, and 30 μM) were then plotted using Nonlinear regression analysis of Sigmoidal dose-response curve. IC50 value was determined by the concentration causing a half-maximal percent activity.

Test [3] relates to phosphatase activity in ApoE transfected A172 glioblastoma cells. Put plainly: Cellular in vitro phosphatase activation assay (Malachite Green, ApoE cDNA transfected A172 cells). To be noted: Homo sapiens, A 172, A172 glioblastoma cells transfected with ApoE cDNA, 24 hours, n = 3, read-out: % increase from ApoE transfected cell at 5 μM test compound concentration. It is filed as cell-based. As for the experimental part:
Cellular in vitro phosphatase activation assay was performed using the method of Theendakara et al, Molecular and Cellular Neuroscience, 83 (2017), pages 83-91 which is described below:
A172 glioblastoma cells were cultured in Dulbecco's modified Eagle's medium (DMEM) supplemented with 10% fetal bovine serum and 1% Penicillin-streptomycin. Incubation was performed at 37° C. and 5% CO2.
A172 cells were seeded at 5×10^5 cells/2.5 ml growth medium (without antibiotics) per well on 6-well tissue culture plates. Cells were incubated overnight to allow them to recover and reattach. […]
After 24 hrs, cells were washed twice with imidazole buffer and lysed using NP-40 Lysis buffer. […] The amount of phosphate release in the assay was determined by measuring absorbance at 620 nm using the Spectramax i3x plate reader.
The absorbance intensity data were analyzed using the computer software Graphpad Prism. The phosphate concentration for each sample was determined from the standard curve using phosphate standard concentrations. In order to compare samples, the first set (column A) were there was no transfection performed and no compound added, was designated a baseline; the absorbance measurement in this column was set as 100% phosphatase activity.

Take `CCCCCCCOc1ccc(CCC(C)(N)CO)cc1` [AAL(S), 2-amino-4-(4-(heptyloxy)phenyl)-2-methylbutan-1-ol]: the “development of inflammation, airway hyperreactivity in mouse models of allergic airway disease” value in test [1] is “inhibited the development of inflammation, airway hyperreactivity”.

Regarding `CCCCCCCCc1ccc(CCC(N)(CO)CO)cc1` [fingolimod], the “development of inflammation, airway hyperreactivity in mouse models of allergic airway disease” value in test [1] was “inhibited the development of inflammation, airway hyperreactivity”.

For orientation: IC50 means the point on the concentration scale where inhibition reaches its midpoint. Read a high IC50 as a need for much substance. `N=S(=O)(N[C@H]1CCO[C@@H](C(c2ccc(F)cc2)c2ccc(F)cc2)C1)c1ccc(OC(F)(F)F)cc1` (single isomer, unassigned) [Example 7-isomer2]: the half-inhibitory concentration (IC50) in test [2] (48 hours) was found to be 10.4 µM.

In test [2] (Medulloblastoma cell, 48 h), `N=S(=O)(N[C@H]1CCO[C@@H](C(c2ccc(F)cc2)c2ccc(F)cc2)C1)c1ccc(OC(F)(F)F)cc1` (single isomer, unassigned) [Example 7-isomer1] yielded a half-inhibitory concentration (IC50) of 14.3 µM.

`N=S(=O)(N[C@H]1CCOC(C2c3ccccc3CCc3ccccc32)C1)c1ccc(OC(F)(F)F)cc1` (single isomer, unassigned) [Example 4] displayed an IC50 in test [2] (48 hours) of 9.5 µM.

On to `N=S(=O)(N[C@H]1CCOC(C2c3ccccc3CCc3ccccc32)C1)c1ccc(OC(F)(F)F)cc1` (single isomer, unassigned) [Example 3], for which the activation at 5 µM in test [3] worked out at 22%. In addition, the IC50 in test [2] (Medulloblastoma cell, 48 h) turned out to be 8.3 µM.
